According to PMC3429506, “Screening for Novel LRRK2 Inhibitors Using a High-Throughput TR-FRET Cellular Assay for LRRK2 Ser935 Phosphorylation” (PLoS ONE, 2012):
Where two headings read alike, the source gives them in different places.

Key:
[1] = tested on: SH-SY5Y cells expressing LRRK2-GFP G2019S
[2] = molecular target: T1, LRRK2 G2019S (Homo sapiens, UniProt Q5S007, G2019S); assay: In vitro biochemical LRRK2 TR-FRET activity assay
Description: The Biochemical LRRK2 TR-FRET activity assay was performed according to the manufacture recommended assay protocol (Life Technologies). […] After incubation at room temperature for 1 hour, the kinase reactions were stopped by addition of 10 µL of 20 mM EDTA and 4 nM Tb-anti-pERM (pLRRKtide) antibody in TR-FRET dilution buffer (Life Technologies). After a 30 minute incubation at room temperature, TR-FRET measurements were obtained on a BMG PHERAstar plate reader using LanthaScreen® filters and settings. A 16 point, 2-fold dilution series of each compound was tested in triplicate at each concentration and assays were also performed in triplicate.

[3] = molecular target: T1, LRRK2 G2019S; assay: TR-FRET cellular assay for LRRK2 Ser935 phosphorylation, SH-SY5Y cells, BacMam LRRK2-GFP G2019S (incl. Tocriscreen Mini library screen and follow-up); type: cell-based; parameters: This high-throughput assay utilizes cells expressing full-length human LRRK2 with a C-terminal GFP tag (LRRK2-GFP); host or cells: SH-SY5Y cells transduced with BacMam; details: SH-SY5Y G2019S; for %Inhibition Initial screen: Tocriscreen Mini library screen, relative to LRRK2-IN-1 control; for Cellular TR-FRET Assay Max % Inhibition / IC50: dose-response follow-up; for Cellular TR-FRET Assay Max % Inhibition: 90 min; for IC50: three independent experiments, read-out: Cellular TR-FRET Assay IC50 +/-SD
Description: U-2 OS cells are maintained in growth medium (McCoy’s 5A supplemented with 10% dialyzed FBS (dFBS), 10 mM HEPES, 0.1 mM NEAA, 1 mM Sodium Pyruvate, and 100 U/mL Penicillin/100 µg/mL Streptomycin). HEK293T cells are maintained in DMEM with 10% dFBS, 10 mM HEPES, 0.1 mM NEAA and 100 U/mL Penicillin/100 µg/mL Streptomycin. SH-SY5Y cells are maintained in DMEM/F-12 medium supplemented with 10% dFBS and 100 U/mL Penicillin/100 µg/mL Streptomycin. […] GIBCO® human neural stem cells (hNSCs) were propagated as an adherent culture in StemPro® NSC SFM according to the manufacturer’s recommended protocol (Life Technologies). For BacMam transduction of U-2 OS and HEK293T, cells were harvested, mixed with various amounts of BacMam LRRK2-GFP reagent (v/v) and plated onto 6-well plates. […] Cells were assayed in 384-well format (∼20,000 cells/well) 48 hours post-transduction as above.
Transduced cells in the 384-well assay plate were incubated with indicated inhibitors (5X, 5 µL/well) for 60 to 90 minutes. During this time, 6 X lysis buffer (Life Technologies) was supplemented with 30 nM Tb-labeled anti-LRRK2 pSer935 antibody and both protease and phosphatase inhibitor cocktails (Sigma). The complete 6 X lysis buffer was added to each well (5 µL/well) and the plates were incubated at room temperature in the dark for 2 hours. […] A sigmoidal dose-response equation with varying slope was used to fit the data and generate IC50 values. Z′-factor values were calculated as: Z′-factor = 1 - [(3 × stdevno virus +3 × stdevmaxvirus)/(avgmaxvirus – avgno-virus)]. The IC50 values reported in Table 1 are the averaged numbers from three independent experiments.
40 nL of 10 mM Tocris library compounds in DMSO were dispensed into each well of the assay plate by the ECHO system. Equal volumes of DMSO were dispensed into the control wells. Cells were incubated with compounds for 90 to 120 min prior to cell lysis and detection as described above. The percent inhibition is calculated as: [(average emission ratios of DMSO control wells – average emission ratios of compound wells)/(average emission ratios of DMSO control wells – average emission ratios of LRRK2-IN-1 treated wells)] * 100. For the dose-response follow-up studies, fresh compound DMSO stock solutions were prepared from powder. […] Z′-factor value was calculated as: Z′-factor = 1 - [(3 × stdevLRRK2-IN-1+3 × stdevDMSO)/(avgDMSO – avgLRRK2-IN-1)]. The IC50 values reported in Table 2 are the averaged numbers from three independent experiments for both cellular and biochemical TR-FRET assays and one representative result of two independent experiments for the cytotoxicity assay.

[4] = molecular target: T2, GFP-LRRK2 G2019S (Homo sapiens, UniProt Q5S007, G2019S); assay: Immunoprecipitation/Western analysis of LRRK2 phosphorylation at Ser910, Ser935, Ser955, Ser973 in HEK293 T-REx GFP-LRRK2 G2019S cells; type: cell-based; details: for effect on phosphorylation of Ser910, Ser935, Ser955 and Ser973 (IP-Western): 20 µM, 90 min, HEK293 GFP-LRRK2 G2019S, Figure 6
T2 construct: expressed in transfected cells
Description: (§1) Immunoblot analysis: BacMam LRRK2-GFP transduced U-2 OS or SH-SY5Y cells (10^7 cells) were left untreated or treated with 3 µM LRRK2-IN-I for 90 min. For lysate preparation, the cells were washed once with ice-cold PBS and lysed by addition of ice-cold lysis buffer (20 mM Tris-HCl, pH 7.4, 1% NP-40, 5 mM EDTA, 5 mM NaF, 150 mM NaCl, and 1∶100 of protease and phosphatase inhibitor cocktails). The lysate was cleared of debris by centrifugation. Equal amount of total protein was loaded onto each lane for SDS-PAGE (3–8% Tris Acetate). The proteins were transferred onto nitrocellulose membrane using the iBLOT® dry blotting system (Life Technologies) according to manufacturer’s protocol. The membranes were blocked and incubated with a primary antibody against LRRK2 (Cell Signaling Technologies), followed by incubation with alkaline phosphatase-conjugated secondary antibody (WesternBreeze® chromogenic Kit, Life Technologies). The blot was developed by using the chromogenic BCIP/NBT substrate (WesternBreeze® chromogenic Kit, Life Technologies). […] Two days post induction, cells were treated for 90 minutes in the presence of 20 µM of compound or DMSO vehicle control. Cells were rapidly lysed in ice cold lysis buffer 50 mM Tris/HCl, pH 7.5, 1 mM EGTA, 1 mM EDTA, […] 1 mM sodium orthovanadate, 10 mM sodium beta-glycerolphosphate, 50 mM NaF, 5 mM sodium pyrophosphate, 0.27 M sucrose, 1 mM benzamidine and 2 mM phenylmethanesulphonylfluoride (PMSF) and one tablet each complete protease inhibitor and PhosSTOP phosphatase inhibitor (Roche) and was supplemented with 1% (v/v) Triton X-100. GFP-LRRK2 was immunoprecipitated with GFP nanotrap beads (ChromoTek). Immunecomplexes were washed twice with lysis buffer supplemented with 300 mM NaCl and once with Buffer A (50 mM Tris/HCl, pH 7.5, 50 mM NaCl, 0.1 mM EGTA and 0.1% (v/v) 2-mercaptoethanol, and 0.27 M sucrose).

[5] = tested on: SH-SY5Y cells expressing LRRK2-GFP G2019S; assay: Cytotoxicity assay (resazurin-based cell viability); details: read-out: Cytotoxicity Assay IC50; same conditions as TR-FRET follow-up; one representative of two experiments
[6] = molecular target: T3, LRRK2 A2016T/G2019S (Homo sapiens, UniProt Q5S007, A2016T/G2019S); assay: Immunoprecipitation/Western analysis of LRRK2 phosphorylation in T-REx HEK293 cells expressing inhibitor desensitizing mutant; type: cell-based; details: 20 µM, Figure 6 IRM
T3 construct: expressed in transfected cells
Description: as §1

T2 sequence (Q5S007 whole entry G2019S): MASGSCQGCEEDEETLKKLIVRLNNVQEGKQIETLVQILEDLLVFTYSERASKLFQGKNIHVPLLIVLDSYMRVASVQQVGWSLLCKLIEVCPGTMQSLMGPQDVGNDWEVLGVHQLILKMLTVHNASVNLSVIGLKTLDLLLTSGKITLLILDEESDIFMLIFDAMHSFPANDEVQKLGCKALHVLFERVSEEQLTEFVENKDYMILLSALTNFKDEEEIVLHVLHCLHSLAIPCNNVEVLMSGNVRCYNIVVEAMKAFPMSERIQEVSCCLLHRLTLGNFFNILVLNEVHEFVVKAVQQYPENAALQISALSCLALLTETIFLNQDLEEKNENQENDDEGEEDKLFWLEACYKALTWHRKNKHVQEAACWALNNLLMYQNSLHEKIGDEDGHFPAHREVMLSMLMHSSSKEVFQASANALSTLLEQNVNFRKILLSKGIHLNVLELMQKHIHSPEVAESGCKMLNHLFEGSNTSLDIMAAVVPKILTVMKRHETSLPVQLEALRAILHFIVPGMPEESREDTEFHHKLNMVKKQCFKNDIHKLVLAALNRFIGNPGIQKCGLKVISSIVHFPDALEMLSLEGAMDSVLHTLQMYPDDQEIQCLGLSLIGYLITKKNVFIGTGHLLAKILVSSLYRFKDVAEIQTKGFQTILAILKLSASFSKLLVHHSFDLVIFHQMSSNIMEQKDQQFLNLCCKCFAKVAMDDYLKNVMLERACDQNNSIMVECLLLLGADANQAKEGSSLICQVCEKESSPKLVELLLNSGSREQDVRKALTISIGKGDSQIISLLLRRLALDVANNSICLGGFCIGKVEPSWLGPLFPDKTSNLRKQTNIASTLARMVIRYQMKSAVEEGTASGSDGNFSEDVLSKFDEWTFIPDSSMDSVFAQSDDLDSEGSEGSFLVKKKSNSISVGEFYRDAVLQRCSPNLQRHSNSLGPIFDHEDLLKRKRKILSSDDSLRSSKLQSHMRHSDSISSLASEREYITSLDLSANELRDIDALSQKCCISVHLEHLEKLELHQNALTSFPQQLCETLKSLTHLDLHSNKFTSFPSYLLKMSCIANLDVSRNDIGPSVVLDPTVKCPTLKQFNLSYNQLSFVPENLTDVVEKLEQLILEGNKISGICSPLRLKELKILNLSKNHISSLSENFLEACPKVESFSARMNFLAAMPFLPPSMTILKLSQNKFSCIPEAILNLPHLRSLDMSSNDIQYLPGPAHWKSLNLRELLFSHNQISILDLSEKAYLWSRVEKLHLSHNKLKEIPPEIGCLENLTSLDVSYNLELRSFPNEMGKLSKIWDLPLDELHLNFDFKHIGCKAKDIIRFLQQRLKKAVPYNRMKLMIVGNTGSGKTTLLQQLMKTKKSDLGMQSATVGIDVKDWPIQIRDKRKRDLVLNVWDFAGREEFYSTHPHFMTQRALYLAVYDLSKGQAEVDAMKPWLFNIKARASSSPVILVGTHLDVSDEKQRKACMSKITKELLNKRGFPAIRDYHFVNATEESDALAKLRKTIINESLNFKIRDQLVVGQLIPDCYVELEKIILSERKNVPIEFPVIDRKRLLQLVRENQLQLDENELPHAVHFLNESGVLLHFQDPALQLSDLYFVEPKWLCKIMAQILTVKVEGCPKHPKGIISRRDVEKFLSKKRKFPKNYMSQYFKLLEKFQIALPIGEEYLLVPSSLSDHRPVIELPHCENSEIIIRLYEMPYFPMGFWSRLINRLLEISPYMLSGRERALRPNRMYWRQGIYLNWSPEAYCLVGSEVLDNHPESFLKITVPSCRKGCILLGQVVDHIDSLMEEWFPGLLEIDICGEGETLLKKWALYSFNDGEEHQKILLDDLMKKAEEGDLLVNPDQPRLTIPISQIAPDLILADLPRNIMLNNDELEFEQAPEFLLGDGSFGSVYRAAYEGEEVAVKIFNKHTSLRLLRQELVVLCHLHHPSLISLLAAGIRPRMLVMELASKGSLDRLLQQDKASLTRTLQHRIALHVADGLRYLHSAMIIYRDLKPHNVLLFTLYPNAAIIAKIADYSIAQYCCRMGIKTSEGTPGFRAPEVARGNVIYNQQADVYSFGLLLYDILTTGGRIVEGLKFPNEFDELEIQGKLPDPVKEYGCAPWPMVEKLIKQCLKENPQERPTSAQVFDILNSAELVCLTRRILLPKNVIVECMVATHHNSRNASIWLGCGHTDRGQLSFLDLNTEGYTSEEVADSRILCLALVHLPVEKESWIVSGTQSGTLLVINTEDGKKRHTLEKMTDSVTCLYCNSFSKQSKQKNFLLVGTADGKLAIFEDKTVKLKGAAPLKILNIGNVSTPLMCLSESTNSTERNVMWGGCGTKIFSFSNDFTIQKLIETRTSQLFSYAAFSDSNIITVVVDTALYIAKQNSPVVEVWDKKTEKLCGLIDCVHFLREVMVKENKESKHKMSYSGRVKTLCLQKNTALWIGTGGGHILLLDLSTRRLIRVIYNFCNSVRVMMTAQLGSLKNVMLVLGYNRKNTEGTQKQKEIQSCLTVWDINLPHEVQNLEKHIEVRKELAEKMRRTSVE
T1 sequence (Q5S007 whole entry G2019S): as above
T3 sequence (Q5S007 whole entry A2016T/G2019S): as the sequence (Q5S007 whole entry G2019S) above, with A2016T counted along it

SMILES | %Inhibition Initial screen ([3]; 20 µM) [%] | Cellular TR-FRET Assay Max % Inhibition [3] [%] | IC50 [3] [µM] | also measured
[O-][S+](c1ccccc1)c1ccc2nnnn2n1 (centres unmarked) [Ro 106-9920] | 69.8 | 76 | 7.6 | IC50 [1]: 20 µM; IC50 ([2]; LRRK2 G2019S, ATP 134 µM (Km,app), LRRKtide substrate, three independent experiments, read-out: Biochemical LRRK2 assay IC50 +/- SD): > 100 µM; effect on LRRK2 activity in vitro ([2]; result in words): did not repress LRRK2 activity in vitro; suppression of LRRK2 phosphorylation on Ser935 ([4]; HEK293 cells): approximately 50%
O=C1NC(=O)c2c1c1c3ccccc3n3c1c1c2c2ccccc2n1C1CCC3O1 [SB 218078] | 55.3 | 54 | 9.5 | IC50 [5]: > 20 µM; effect on phosphorylation of Ser910, Ser935, Ser955 and Ser973 (IP-Western) [4]: moderately reduced phosphorylation of all four residues; effect of desensitizing mutation A2016T/G2019S on compound-induced dephosphorylation (IP-Western) [6]: did not appear to be changed
CN(C)CCCn1cc(C2=C(c3c[nH]c4ccccc34)C(=O)NC2=O)c2ccccc21 [GF109203X] |  |  |  | dephosphorylation of Ser935 in library screen ([3]; Tocriscreen library, 20 µM): did not observe in vivo dephosphorylation of Ser935
O=C(NCCCNc1nc(Nc2cccc(NC(=O)N3CCCC3)c2)ncc1I)c1cccs1 [BX-795] |  |  |  | effect on phosphorylation of Ser910, Ser935, Ser955 and Ser973 (IP-Western) [4]: inhibited LRRK2 cellular phosphorylation; effect of desensitizing mutation A2016T/G2019S on compound-induced dephosphorylation (IP-Western) [6]: rescued phosphorylation
CC(C)[C@H](CO)Nc1nc(Nc2cc(N)cc(Cl)c2)c2ncn(C(C)C)c2n1 [Aminopurvalanol A] | 56.2 | 50 | 1.4 | IC50 [1]: > 20 µM
NC(=O)Nc1sc(-c2ccc(F)cc2)cc1C(N)=O [TPCA-1] | 54.8 | 50 | 0.1 | IC50 [5]: > 20 µM
O=C(CCCN1CCC2(CC1)C(=O)N(Cc1cccc(F)c1)CN2c1ccccc1)c1ccc(F)cc1.O=C(O)/C=C\C(=O)O [3′-fluorobenzylspiperone maleate] | 53 |  |  | 
Nc1nc(Nc2ccccc2)nc2c1ncn2[C@@H]1O[C@H](CO)[C@@H](O)[C@H]1O [CV1808] | 55 |  |  | 
